Reference: patent US20230045421A1 (priority 2018, published 2023)

What follows are molecules tested on HBV rcDNA (assay: HepDE19 assay with bDNA quantitation of HBV rcDNA). Details: HepDE19 assay, inhibition of formation of rcDNA; read-out: DE-19bDNA EC50.
Assay type: cell-based, hepatitis B virus
Summary of the method: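 HepDE19 cells (HepG2-derived, Tet-regulated HBV replication) were deprived of tetracycline and then exposed to compounds for 7 days at 37 °C in 0.5% DMSO, 8-point titration from 25 μM. rcDNA was quantified by bDNA and EC50/EC90 came from 4-parameter fits. CC50 was measured by CellTiter-Glo ATP content on replicate plates after 4 days.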

Compound | EC50 [nM]
CCC(c1cnc(OC)c2ccccc12)N(CC)C(=O)Nc1ccc(F)c(Cl)c1 (single isomer, unassigned) [Compound 36, 3-(3-Chloro-4-fluorophenyl)-1-ethyl-1-(1-(1-methoxyisoquinolin-4-yl)propyl)urea] | 2100
CC(C)CN(C(=O)Nc1ccc(F)c(Cl)c1)C(C)c1c[nH]c(=O)c2ccccc12 (single isomer, unassigned) [Compound 143, 3-(3-chloro-4-fluorophenyl)-1-isobutyl-1-(1-(1-oxo-1,2-dihydroisoquinolin-4-yl)ethyl)urea] | 850
CC(c1c[nH]c(=O)c2ccccc12)N(CCS(C)(=O)=O)C(=O)Nc1ccc(F)c(Cl)c1 (single isomer, unassigned) [Compound 107, 3-(3-Chloro-4-fluorophenyl)-1-(2-(methylsulfonyl)ethyl)-1-(1-(1-oxo-1,2-dihydroisoquinolin-4-yl)ethyl)urea] | 17000
CC(c1cnc(OCc2ncn(C)n2)c2ccccc12)N(C)C(=O)Nc1ccc(F)c(Cl)c1 (single isomer, unassigned) [Compound 132, 3-(3-Chloro-4-fluorophenyl)-1-methyl-1-(1-(1-((1-methyl-1H-1,2,4-triazol-3-yl)methoxy)isoquinolin-4-yl)ethyl)urea] | 60
CC(c1c[nH]c(=O)c2ccccc12)N(C[C@H](C)O)C(=O)Nc1ccc(F)c(Cl)c1 (single isomer, unassigned) [Compound 218] | 80
CC(c1c[nH]c(=O)c2ccccc12)N(CC1CCCC1)C(=O)Nc1ccc(F)c(Cl)c1 (single isomer, unassigned) [Compound 193, 3-(3-Chloro-4-fluorophenyl)-1-(cyclopentylmethyl)-1-(1-(1-oxo-1,2-dihydroisoquinolin-4-yl)ethyl)urea] | 10
CC(c1c[nH]c(=O)c2ccccc12)N(CCC(=O)N(C)C)C(=O)Nc1ccc(F)c(Cl)c1 (single isomer, unassigned) [Compound 106, 3-(3-(3-Chloro-4-fluorophenyl)-1-(1-(1-oxo-1,2-dihydroisoquinolin-4-yl)ethyl)ureido)-N,N-dimethylpropanamide] | 80
CC(c1cn(C(C)C)c(=O)c2ccccc12)N(C)C(=O)Nc1ccc(F)c(Cl)c1 (single isomer, unassigned) [Compound 187, 3-(3-Chloro-4-fluorophenyl)-1-(1-(2-isopropyl-1-oxo-1,2-dihydroisoquinolin-4-yl)ethyl)-1-methylurea] | 140
CC(c1c[nH]c(=O)c2ccccc12)N(C(=O)Nc1ccc(F)c(Cl)c1)C1CC1 (single isomer, unassigned) [Compound 68, 3-(3-Chloro-4-fluorophenyl)-1-cyclopropyl-1-(1-(1-oxo-1,2-dihydroisoquinolin-4-yl)ethyl)urea] | 60
COc1ncc(C(C)N(CC2CC2)C(=O)Nc2ccc(F)c(Cl)c2)c2ccccc12 (single isomer, unassigned) [Compound 64, 3-(3-Chloro-4-fluorophenyl)-1-(cyclopropylmethyl)-1-(1-(1-methoxyisoquinolin-4-yl)ethyl)urea] | 120
CC(c1cnc(NCc2cn[nH]n2)c2ccccc12)N(C)C(=O)Nc1ccc(F)c(Cl)c1 (single isomer, unassigned) [Compound 261, 1-(1-(1-(((2H-1,2,3-Triazol-4-yl)methyl)amino)isoquinolin-4-yl)ethyl)-3-(3-chloro-4-fluorophenyl)-1-methylurea] | 6100
COc1ccc2c(=O)[nH]cc(C(C)N(C)C(=O)Nc3ccc(F)c(Cl)c3)c2c1 (single isomer, unassigned) [Compound 179, 3-(3-Chloro-4-fluorophenyl)-1-(1-(6-methoxy-1-oxo-1,2-dihydroisoquinolin-4-yl)ethyl)-1-methylurea] | 7300

Same assay, conditions: HepDE19 assay, inhibition of formation of relaxed circular DNA (rcDNA), bDNA quantitation; read-out: DE-19bDNA EC50

Compound | EC50 [nM]
CC(c1c[nH]c(=O)c2c(F)cccc12)N(CCS(N)(=O)=O)C(=O)Nc1ccc(F)c(Cl)c1 (single isomer, unassigned) [Compound 397, 2-(3-(3-Chloro-4-fluorophenyl)-1-(1-(8-fluoro-1-oxo-1,2-dihydroisoquinolin-4-yl)ethyl)ureido) ethane-1-sulfonamide] | 100
CC(c1c[nH]c(=O)c2cc(F)c(F)cc12)N(C)C(=O)NCc1cc(F)c(F)c(F)c1 (single isomer, unassigned) [Compound 482, 1-(1-(6,7-Difluoro-1-oxo-1,2-dihydroisoquinolin-4-yl)ethyl)-1-methyl-3-(3,4,5-trifluorobenzyl)urea] | 11000
CC(c1c[nH]c(=O)c2c(F)cccc12)N(CCCO)C(=O)Nc1ccc(F)c(Cl)c1 (single isomer, unassigned) [Compound 367, 3-(3-Chloro-4-fluorophenyl)-1-(1-(8-fluoro-1-oxo-1,2-dihydroisoquinolin-4-yl)ethyl)-1-(3-hydroxypropyl)urea] | 8
CC(c1c[nH]c(=O)c2cc(F)c(F)cc12)N(C)C(=O)Nc1cccc(F)c1F (single isomer, unassigned) [Compound 430, 1-(1-(6,7-Difluoro-1-oxo-1,2-dihydroisoquinolin-4-yl)ethyl)-3-(2,3-difluorophenyl)-1-methylurea] | 12000
CC(c1c[nH]c(=O)c2cc(F)c(F)cc12)N(CCS(N)(=O)=O)C(=O)Nc1ccc(F)cc1 (single isomer, unassigned) [Compound 387, 2-(1-(1-(6,7-Difluoro-1-oxo-1,2-dihydroisoquinolin-4-yl)ethyl)-3-(4-fluorophenyl)ureido)ethane-1-sulfonamide] | 40
CC(c1c[nH]c(=O)c2cc(F)c(F)cc12)N(C)C(=O)Nc1ccc(F)cc1 (single isomer, unassigned) [Compound 286, 1-(1-(6,7-Difluoro-1-oxo-1,2-dihydroisoquinolin-4-yl)ethyl)-3-(4-fluorophenyl)-1-methylurea] | 20
CC(c1c[nH]c(=O)c2c(F)c(F)ccc12)N(C)C(=O)NCc1cc(F)c(F)c(F)c1 (single isomer, unassigned) [Compound 493, 1-(1-(7,8-Difluoro-1-oxo-1,2-dihydroisoquinolin-4-yl)ethyl)-1-methyl-3-(3,4,5-trifluorobenzyl)urea] | 15000
CC(c1c[nH]c(=O)c2c(F)c(F)ccc12)N(C)C(=O)NCc1ccc(F)cc1 (single isomer, unassigned) [Compound 492, 1-(1-(7,8-Difluoro-1-oxo-1,2-dihydroisoquinolin-4-yl)ethyl)-3-(4-fluorobenzyl)-1-methylurea] | 840
CC(c1c[nH]c(=O)c2c(F)c(F)ccc12)N(C)C(=O)Nc1cc(F)c(F)c(F)c1 (single isomer, unassigned) [Compound 443, 1-(1-(7,8-Difluoro-1-oxo-1,2-dihydroisoquinolin-4-yl)ethyl)-1-methyl-3-(3,4,5-trifluorophenyl)urea] | 40

Same assay, conditions: Hepatitis B virus, HepDE19, HepDE19 assay, inhibition of formation of rcDNA; read-out: DE-19bDNA EC50

Compound | EC50 [nM]
CCCCN(Cc1c[nH]c(=O)c2ccccc12)C(=O)Nc1ccc(F)c(Cl)c1 [Compound 52, 1-Butyl-3-(3-chloro-4-fluorophenyl)-1-((1-oxo-1,2-dihydroisoquinolin-4-yl)methyl)urea] | 80
CCCCN(Cc1cnc(OC)c2ccccc12)C(=O)Nc1ccc(F)c(Cl)c1 [Compound 33, 1-Butyl-3-(3-chloro-4-fluorophenyl)-1-((1-methoxyisoquinolin-4-yl)methyl)urea] | 620
CC(c1c[nH]c(=O)c2ccccc12)N(CC(=O)N(C)C)C(=O)Nc1ccc(F)c(Cl)c1 (racemic) [Compound 147, 2-(3-(3-Chloro-4-fluorophenyl)-1-(1-(1-oxo-1,2-dihydroisoquinolin-4-yl)ethyl)ureido)-N,N-dimethylacetamide] | 840
COc1ncc(CN(C)C(=O)Nc2ccc(F)c(C)c2)c2ccccc12 [Compound 3, 3-(4-Fluoro-3-methylphenyl)-1-((1-methoxyisoquinolin-4-yl)methyl)-1-methylurea] | 1100
Cc1cc(NC(=O)N(C)C(C)c2c(C)[nH]c(=O)c3ccccc23)ccc1F (racemic) [Compound 230, 3-(4-Fluoro-3-methylphenyl)-1-methyl-1-(1-(3-methyl-1-oxo-1,2-dihydroisoquinolin-4-yl)ethyl)urea] | 120

Same assay, conditions: Hepatitis B virus, HepDE19, HepDE19 assay, inhibition of formation of relaxed circular DNA (rcDNA), bDNA quantitation; read-out: DE-19bDNA EC50

Compound | EC50 [nM]
CC(c1cnc(-n2ccnn2)c2ccccc12)N(C)C(=O)Nc1ccc(F)c(Cl)c1 (racemic) [Compound 354, 1-(1-(1-(1H-1,2,3-triazol-1-yl)isoquinolin-4-yl)ethyl)-3-(3-chloro-4-fluorophenyl)-1-methylurea] | 130

Same assay, conditions: read-out: DE-19bDNA EC50; HepDE19 assay, inhibition of formation of rcDNA

Compound | EC50 [nM]
CC(c1c[nH]c(=O)c2ccccc12)N(CC[C@H](C)O)C(=O)Nc1ccc(F)c(Cl)c1 (single isomer, unassigned) [Compound 213] | 3600
CCN(C(=O)Nc1ccc(F)c(Cl)c1)C(c1c[nH]c(=O)c2ccccc12)C1CC1 (single isomer, unassigned) [Compound 46, 3-(3-Chloro-4-fluorophenyl)-1-(cyclopropyl(1-oxo-1,2-dihydroisoquinolin-4-yl)methyl)-1-ethylurea] | 23000

Same assay, conditions: read-out: DE-19bDNA EC50; HepDE19 assay, inhibition of formation of relaxed circular DNA (rcDNA), bDNA quantitation

Compound | EC50 [nM]
CC(c1c[nH]c(=O)c2cc(F)c(F)cc12)N(C)C(=O)Nc1cccc(F)c1 (single isomer, unassigned) [Compound 411, 1-(1-(6,7-Difluoro-1-oxo-1,2-dihydroisoquinolin-4-yl)ethyl)-3-(3-fluorophenyl)-1-methylurea] | 37
CCN(C(=O)Nc1ccccc1)C(C)c1c[nH]c(=O)c2c(F)c(F)ccc12 (single isomer, unassigned) [Compound 467, 1-(1-(7,8-Difluoro-1-oxo-1,2-dihydroisoquinolin-4-yl)ethyl)-1-ethyl-3-phenylurea] | 66
